Each block holds one compound with its values, some of them ahead of it.
Assays:
[1] = test system: Multidrug resistant Acinetobacter baumannii isolated from a source in Libya; experiment: Minimum Inhibitory Concentration assay (96-well, CAMHB), Examples 1 and 2
Method: Antibiotics were diluted in cation-adjusted Mueller-Hinton broth (CAMHB) or CAMHB with G-fragments (Oligo CF-5/20 90-95% G residues) at 2%, 6% or 10%.
Bacterial cultures at 0.5 McFarland standard were diluted ten-fold in CAMHB and 5 μl added to the microtiter plates containing the antibiotic serial dilutions. Plates were wrapped in parafilm and incubated at 37° C. for 16-20 hours. MIC values for each antibiotic were determined as the lowest concentration at which there was no visible growth.

Acinetobacter strains = experiment: MIC assays of Example 3, Tables 3 and 4 taken together; type: cell-based, Acinetobacter baumannii and Acinetobacter Iwoffii; conditions: in one Acinetobacter strain or another
Method: (§1) MIC assays as described in Example 1 were conducted using the following Acinetobacter strains, antibiotics and concentrations of OligoCF-5/20 as described in Tables 3 and 4.
(§2) • V19* 7789 Acinetobacter baumannii • V20* 8065 Acinetobacter Iwoffii MDR Strains • V4* MDR ACB (Libya) Acinetobacter baumannii • V9* (Egypt) Acinetobacter baumannii • V10* (Egypt) Acinetobacter Iwoffii • V22* 6056 Acinetobacter Iwoffii
Further MIC assays were conducted with the various strains and antibiotics recited in Table 4 using the following protocol.

[2] = test system: Staphylococcus aureus NCTC 6571 MIC CONTROL STRAIN (Oxford Staph.); experiment: Minimum Inhibitory Concentration assay (96-well, CAMHB), Example 1; type: cell-based; conditions: S. Aur
[3] = test system: Acinetobacter baumannii strains V9, V19; experiment: MIC assays as described in Example 1, Example 3 (Table 3); type: cell-based; conditions: strain V19
Method: as §1, §2

[4] = A. bau, +2% G (G-fragments Oligo CF-5/20)
[5] = A. bau, +6% G (G-fragments Oligo CF-5/20)
[6] = A. bau, +10% G (G-fragments Oligo CF-5/20)
[7] = +2% G (G-fragments Oligo CF-5/20)
[8] = +6% G (G-fragments Oligo CF-5/20)
[9] = +10% G (G-fragments Oligo CF-5/20)

MIC value, Ceftazidime with azithromycin at 4 μg/ml [1, 4]: <4 μg/ml Az
MIC value, Ceftazidime with azithromycin at 8 μg/ml [1, 4]: <8 μg/ml Az
MIC value, Ciprofloxacin with azithromycin at 8 μg/ml [1, 4]: <8 μg/ml Az
MIC value, Ciprofloxacin with azithromycin at 4 μg/ml: azithromycin part of the inhibitory combination ([1]; A. bau, +2% G (G-fragments Oligo CF-5/20), together with 64 Cpr): 4 µg/mL
MIC value, Ceftazidime with azithromycin at 4 μg/ml [1, 5]: <4 μg/ml Az
MIC value, Ceftazidime with azithromycin at 8 μg/ml [1, 5]: <8 μg/ml Az
MIC value, Ciprofloxacin with azithromycin at 4 μg/ml [1, 5]: <4 μg/ml Az
MIC value, Ciprofloxacin with azithromycin at 8 μg/ml [1, 5]: <8 μg/ml Az
MIC value, Ceftazidime with azithromycin at 4 μg/ml [1, 6]: <4 μg/ml Az
MIC value, Ceftazidime with azithromycin at 8 μg/ml [1, 6]: <8 μg/ml Az
MIC value, Ciprofloxacin with azithromycin at 4 μg/ml [1, 6]: <4 μg/ml Az
MIC value, Ciprofloxacin with azithromycin at 8 μg/ml [1, 6]: <8 μg/ml Az
effect of OligoCF-5/20 on the MIC value for azithromycin ([1]; Acinetobacter organism, azithromycin 8 or 4 μg/ml): greatly reduces
effect of increasing concentrations of OligoCF-5/20 (0-10%) on MIC values (Tables 3 and 4) (Acinetobacter strains): decreases MIC values
MIC value, Ceftazidime with azithromycin at 4 μg/ml ([2]; 0 G (no G-fragments)): <4 μg/ml Az
MIC value, Ceftazidime with azithromycin at 8 μg/ml ([2]; 0 G (no G-fragments)): <8 μg/ml Az
MIC value, Ciprofloxacin with azithromycin at 4 μg/ml ([2]; 0 G (no G-fragments)): <4 μg/ml Az
MIC value, Ciprofloxacin with azithromycin at 8 μg/ml ([2]; 0 G (no G-fragments)): <8 μg/ml Az
MIC value, Ceftazidime with azithromycin at 4 μg/ml [2, 7]: <4 μg/ml Az
MIC value, Ceftazidime with azithromycin at 8 μg/ml [2, 7]: <8 μg/ml Az
MIC value, Ciprofloxacin with azithromycin at 4 μg/ml [2, 7]: <4 μg/ml Az
MIC value, Ciprofloxacin with azithromycin at 8 μg/ml [2, 7]: <8 μg/ml Az
MIC value, Ceftazidime with azithromycin at 4 μg/ml [2, 8]: <4 μg/ml Az
MIC value, Ceftazidime with azithromycin at 8 μg/ml [2, 8]: <8 μg/ml Az
MIC value, Ciprofloxacin with azithromycin at 4 μg/ml [2, 8]: <4 μg/ml Az
MIC value, Ciprofloxacin with azithromycin at 8 μg/ml [2, 8]: <8 μg/ml Az
MIC value, Ceftazidime with azithromycin at 4 μg/ml [2, 9]: <4 μg/ml Az
MIC value, Ceftazidime with azithromycin at 8 μg/ml [2, 9]: <8 μg/ml Az
MIC value, Ciprofloxacin with azithromycin at 4 μg/ml [2, 9]: <4 μg/ml Az
MIC value, Ciprofloxacin with azithromycin at 8 μg/ml [2, 9]: <8 μg/ml Az
SMILES: CC[C@H]1OC(=O)[C@H](C)[C@@H](O[C@H]2C[C@@](C)(OC)[C@@H](O)[C@H](C)O2)[C@H](C)[C@@H](O[C@@H]2O[C@H](C)C[C@H](N(C)C)[C@H]2O)[C@](C)(O)C[C@@H](C)CN(C)[C@H](C)[C@@H](O)[C@]1(C)O [azithromycin]
inhibition of growth by azithromycin combined with G-fragments ([1]; 4 μg/ml azithromycin and 2% or more G-fragments): completely inhibited
inhibition of growth by azithromycin in the absence of G-fragments ([1]; azithromycin at 4 μg/ml and at 8 μg/ml, no G-fragments): not capable of inhibiting growth

effect of increasing concentrations of OligoCF-5/20 on MIC values (Table 3) [3]: no effect
SMILES: C[C@@H](O)[C@H]1C(=O)N2C(C(=O)O)=C(SCCN=CN)C[C@H]12 [imipenem]

effect of increasing concentrations of OligoCF-5/20 (0-10%) on MIC values (Tables 3 and 4) (Acinetobacter strains): decreases MIC values
SMILES: CC[C@H]1OC(=O)[C@H](C)[C@@H](O[C@H]2C[C@@](C)(OC)[C@@H](O)[C@H](C)O2)[C@H](C)[C@@H](O[C@@H]2O[C@H](C)C[C@H](N(C)C)[C@H]2O)[C@](C)(O)C[C@@H](C)/C(=N\OCOCCOC)[C@H](C)[C@@H](O)[C@]1(C)O [roxithromycin]

— patent US8815831B2, “Treatment of Acinetobacter with alginate oligomers and antibiotics” (priority 2009, dated 2014)
